Where two headings read alike, the source gives them in different places.
Tested on: wild‐type BCG cells
Type: cell-based, M. bovis BCG
Conditions: for Mean_Ratio GDI5755_3d: DMSO_3d: Table S6; for Mean Ratio: GDI5755_2d vs DMSO_2d; for Mean Ratio / Mean Ratio (GDI5755_2d vs DMSO_2d): up-regulated; for Mean_Ratio (GDI5755_3d vs DMSO_3d): down-regulated, 3 d; for Mean Ratio (GDI5755_2d vs DMSO_2d): 2d

## O=C(Oc1ccc(Cl)cc1)c1ccc(N2CCOCC2)c([N+](=O)[O-])c1 [GDI‐5755]
BCG_1101c Serine protease
  Mean_Ratio GDI5755_3d: DMSO_3d: 1.4
BCG_1189c HNH nuclease domain-containing protein
  Mean_Ratio GDI5755_3d: DMSO_3d: 1.3
BCG_1283 Probable serine protease htrA
  Mean_Ratio GDI5755_3d: DMSO_3d: 1.3
BCG_1324 Uncharacterized protein
  Mean_Ratio GDI5755_3d: DMSO_3d: 1.3
BCG_1333 Lipoprotein lprB
  Mean_Ratio GDI5755_3d: DMSO_3d: 1.3
BCG_1334 Lipoprotein lprC
  Mean_Ratio GDI5755_3d: DMSO_3d: 1.3
BCG_1438c Transferase
  Mean_Ratio GDI5755_3d: DMSO_3d: 1.3
BCG_1471c Probable triacylglyceride transporter
  Mean_Ratio GDI5755_3d: DMSO_3d: 1.3
BCG_1492 Conserved membrane protein
  Mean_Ratio GDI5755_3d: DMSO_3d: 1.3
BCG_1523 Fe-S cluster assembly protein SufD
  Mean_Ratio GDI5755_3d: DMSO_3d: 1.3
BCG_1532 Thioredoxin
  Mean_Ratio GDI5755_3d: DMSO_3d: 1.3
BCG_1543 UPF0353 protein
  Mean_Ratio GDI5755_3d: DMSO_3d: 1.3
BCG_1787 DUF4129 domain-containing protein
  Mean_Ratio GDI5755_3d: DMSO_3d: 1.4
BCG_1890c NADH dehydrogenase ndh
  Mean_Ratio GDI5755_3d: DMSO_3d: 1.5
BCG_1937 Thiamine-binding protein-containing protein
  Mean_Ratio GDI5755_3d: DMSO_3d: 1.3
BCG_1984 HNH nuclease domain-containing protein
  Mean_Ratio GDI5755_3d: DMSO_3d: 1.3
BCG_2183c Transcriptional regulator MraZ
  Mean_Ratio GDI5755_3d: DMSO_3d: 1.3
BCG_2241c Serine protease Hip1
  Mean_Ratio GDI5755_3d: DMSO_3d: 1.3
BCG_2351c Probable lipoprotein lppP
  Mean_Ratio GDI5755_3d: DMSO_3d: 1.3
BCG_2486c DSBA-like thioredoxin domain-containing protein
  Mean_Ratio GDI5755_3d: DMSO_3d: 1.7
BCG_2516c pyruvate dehydrogenase E1 component pdhB
  Mean_Ratio GDI5755_3d: DMSO_3d: 1.3
BCG_2656 Uncharacterized protein
  Mean_Ratio GDI5755_3d: DMSO_3d: 1.4
BCG_2721c DUF3039 domain-containing protein
  Mean_Ratio GDI5755_3d: DMSO_3d: 1.4
BCG_2723 RNA polymerase sigma factor, sigB
  Mean_Ratio GDI5755_3d: DMSO_3d: 1.3
BCG_2934c Possible D-amino acid aminohydrolase
  Mean_Ratio GDI5755_3d: DMSO_3d: 1.4
BCG_3028 conserved lipoprotein lppZ
  Mean_Ratio GDI5755_3d: DMSO_3d: 1.3
BCG_3153c Diacylglycerol O-acyltransferase
  Mean_Ratio GDI5755_3d: DMSO_3d: 1.4
BCG_3164 Probable NADPH quinone oxidoreductase fadB4
  Mean_Ratio GDI5755_3d: DMSO_3d: 1.2
BCG_3165c Uncharacterized protein
  Mean_Ratio GDI5755_3d: DMSO_3d: 1.3
BCG_3185c Dioxygenase
  Mean_Ratio GDI5755_3d: DMSO_3d: 2.2
BCG_3269c Protein translocase subunit SecA 1
  Mean_Ratio GDI5755_3d: DMSO_3d: 1.2
BCG_3476 Probable dioxygenase
  Mean_Ratio GDI5755_3d: DMSO_3d: 1.6
BCG_3583 Acetoacetate decarboxylase
  Mean_Ratio GDI5755_3d: DMSO_3d: 1.3
BCG_3590 Rieske-type oxygenase
  Mean_Ratio GDI5755_3d: DMSO_3d: 1.4
BCG_3674c ATP-dependent zinc metalloprotease FtsH
  Mean_Ratio GDI5755_3d: DMSO_3d: 1.3
BCG_3709 Rv3651-like N-terminal domain-containing protein
  Mean_Ratio GDI5755_3d: DMSO_3d: 1.3
BCG_3824c Two-component transcriptional regulator TcrX
  Mean_Ratio GDI5755_3d: DMSO_3d: 1.4
BCG_3881 Uncharacterized protein
  Mean_Ratio GDI5755_3d: DMSO_3d: 1.4
BCG_3905c Glycerol phosphoryl diester phosphodiesterase glpQ1
  Mean_Ratio GDI5755_3d: DMSO_3d: 1.3
iTRAQ protein abundance ratio, 2 d treatment vs DMSO, sheet down-regulated, Protein_ID A0A0H3M0L9, Pvalue 5.14E-04
  Mean_Ratio (GDI5755_2d vs DMSO_2d), protein L-serine dehydratase: 0.80
iTRAQ protein abundance ratio, 2 d treatment vs DMSO, sheet down-regulated, Protein_ID A0A0H3M5R4, Pvalue 4.43E-04
  Mean_Ratio (GDI5755_2d vs DMSO_2d), protein Endonuclease NucS: 0.80
iTRAQ protein abundance ratio, 2 d treatment vs DMSO, sheet down-regulated, Protein_ID A0A0H3M7Q0, Pvalue 1.60E-03
  Mean_Ratio (GDI5755_2d vs DMSO_2d), protein Trehalose 2-sulfotransferase: 0.80
iTRAQ protein abundance ratio, 2 d treatment vs DMSO, sheet down-regulated, Protein_ID A0A0H3M274, Pvalue 5.23E-03
  Mean_Ratio (GDI5755_2d vs DMSO_2d), protein DUF3263 domain-containing protein: 0.80
iTRAQ protein abundance ratio, 2 d treatment vs DMSO, sheet down-regulated, Protein_ID A0A0H3MDG6, Pvalue 1.81E-05
  Mean_Ratio (GDI5755_2d vs DMSO_2d), protein Translation initiation factor IF-3: 0.80
iTRAQ protein abundance ratio, 2 d treatment vs DMSO, sheet down-regulated, Protein_ID A0A0H3MDQ9, Pvalue 5.91E-05
  Mean_Ratio (GDI5755_2d vs DMSO_2d), protein Possible conserved membrane or exported protein: 0.80
iTRAQ protein abundance ratio, 2 d treatment vs DMSO, sheet down-regulated, Protein_ID A1KGI7, Pvalue 5.54E-04
  Mean_Ratio (GDI5755_2d vs DMSO_2d), protein Large ribosomal subunit protein uL22: 0.80
iTRAQ protein abundance ratio, 2 d treatment vs DMSO, sheet down-regulated, Protein_ID A1KLF3, Pvalue 2.57E-03
  Mean_Ratio (GDI5755_2d vs DMSO_2d), protein ATP-dependent Clp protease ATP-binding subunit ClpX: 0.80
Protein A0A0G2Q9F2 Ribonuclease P protein component
  Mean Ratio: 1.26
Protein A0A0G2Q9J9, BCG_3329c (Rv3300c), Pseudouridine synthase RsuA/RluA-like domain-containing protein
  Mean_Ratio (GDI5755_3d vs DMSO_3d): 0.7
Protein A0A0G2Q9N9, BCG_0021 (Rv3915), N-acetylmuramoyl-L-alanine amidase CwlM
  Mean_Ratio (GDI5755_3d vs DMSO_3d): 0.7
Protein A0A0H3M0K6 Probable conserved transmembrane protein
  Mean Ratio: 1.32
Protein A0A0H3M0R3 Secreted antigen 85-c fbpC (85C)
  Mean Ratio: 1.28
Protein A0A0H3M1A8 Isoniazid inductible gene protein iniC
  Mean Ratio (GDI5755_2d vs DMSO_2d): 1.34
Protein A0A0H3M1E3, BCG_0162 (Rv0128), Probable conserved transmembrane protein
  Mean_Ratio (GDI5755_3d vs DMSO_3d): 0.7
Protein A0A0H3M1F5 DUF427 domain-containing protein
  Mean Ratio (GDI5755_2d vs DMSO_2d): 1.39
Protein A0A0H3M1G0 Possible conserved lipoprotein lpqK
  Mean Ratio: 1.28
Protein A0A0H3M1I3, BCG_0204 (Rv0167), Conserved hypothetical integral membrane protein yrbE1A
  Mean_Ratio (GDI5755_3d vs DMSO_3d): 0.7
Protein A0A0H3M1V2, BCG_0591c (Rv0547c), Possible oxidoreductase
  Mean_Ratio (GDI5755_3d vs DMSO_3d): 0.757
Protein A0A0H3M1X4 Probable dehydrogenase/reductase
  Mean Ratio: 1.28
Protein A0A0H3M1Z8 Isoniazid inductible gene protein iniA
  Mean Ratio: 1.28
Protein A0A0H3M2A5 Carboxymuconolactone decarboxylase-like domain-containing protein
  Mean Ratio: 1.25
Protein A0A0H3M2D4 Possible conserved transmembrane protein
  Mean Ratio: 1.26
Protein A0A0H3M2J1, BCG_0913c (Rv0861c), DNA helicase
  Mean_Ratio (GDI5755_3d vs DMSO_3d): 0.746
Protein A0A0H3M2K9, BCG_0627 (Rv0582), Ribonuclease VapC
  Mean_Ratio (GDI5755_3d vs DMSO_3d): 0.74
Protein A0A0H3M2L9, BCG_0933 (Rv0881), Possible rRNA methyltransferase
  Mean_Ratio (GDI5755_3d vs DMSO_3d): 0.7
Protein A0A0H3M2M6, BCG_0648c (Rv0602c), Two component DNA binding/Transcriptional regulatory protein tcrA
  Mean_Ratio (GDI5755_3d vs DMSO_3d): 0.7

From article PMC12042115 (mLife, 2025)
